One may read the solubility as how much of the substance goes into solution per volume. The low end stands for a poorly soluble substance, the high end for a readily soluble substance.

Values after ≈ are worked out from the molar mass of the structure shown.

Results on 13 molecules are retold here after ChEMBL document CHEMBL3352725, “An uncharged oxetanyl sulfoxide as a covalent modifier for improving aqueous solubility” (ACS Med Chem Lett, 2014).

The first data set can be described thus: Aqueous solubility of the compound in H2O after 24 hrs incubation at 30 degC by LCMS analysis. In kind it is physicochemical. The settings on record: buffer, 24 h.
`Cc1ccc(Cl)c(Nc2ccccc2C(=O)O)c1Cl` [MECLOFENAMIC ACID] came in with a solubility of 550 µg/mL (≈ 1860 µM).

Staying with this data set, now noted: water.
Turning to `COc1ccc2cc([C@H](C)C(=O)OCC[S+]([O-])CC3(C)COC3)ccc2c1` (mixture of isomers), the solubility at 24 h turned out to be 820 µg/mL.

The molecule `CC1(C[S+]([O-])CCOC(=O)Nc2ccc3sc4c(c3c2)SCCNC4=O)COC1` (centres undefined) had a solubility at 24 h of 440 µg/mL (≈ 968 µM).

Regarding `COc1ccc2cc([C@H](C)C(=O)OCCSCC3(C)COC3)ccc2c1`, the solubility at 24 h worked out at 13 µg/mL (≈ 34.7 µM).

For the molecule `CC1(C[S+]([O-])CCOC(=O)N2CCN(c3cc4c(cc3F)c(=O)c(C(=O)O)cn4C3CC3)CC2)COC1` (centres undefined), the concentration in solution (solubility at 24 h) was 190 µg/mL (≈ 355 µM).

In the case of `COc1ccc2cc([C@H](C)C(=O)OCCS(=O)(=O)CC3(C)COC3)ccc2c1`, the solubility at 24 h was found to be 63 µg/mL (≈ 155 µM).

`Cc1ccc(Cl)c(Nc2ccccc2C(=O)OCC[S+]([O-])CC2(C)COC2)c1Cl` (centres undefined) showed a solubility at 24 h of 250 µg/mL (≈ 548 µM).

In turn, `CC(C)C[C@@H](/C=C/CC(=O)NC1CC(C)(C)N([O])C(C)(C)C1)NC(=O)OC(C)(C)C` had a solubility at 24 h of 250 µg/mL (≈ 589 µM).

For `Cc1cc(NS(=O)(=O)c2ccc(NC(=O)OCC[S+]([O-])CC3(C)COC3)cc2)no1` (centres undefined), the solubility at 24 h was 1000 µg/mL (≈ 2190 µM).

In turn, `CCOC(=O)Nc1ccc2sc3c(c2c1)SCCNC3=O` displayed a solubility at 24 h of 67 µg/mL (≈ 208 µM).

In the case of `COc1ccc2cc([C@H](C)C(=O)OCC[S+](C)[O-])ccc2c1` (some centres undefined), the concentration in solution (solubility at 24 h) came to 270 µg/mL (≈ 843 µM).

As for `C[C@H](CCC(=O)OCC[S+]([O-])CC1(C)COC1)[C@H]1CC[C@H]2[C@@H]3CC[C@@H]4C[C@H](O)CC[C@]4(C)[C@H]3CC[C@]12C` (mixture of isomers), the solubility at 24 h came to 260 µg/mL.

`CC(C)C[C@@H](/C=C/CC(=O)NC1CC(C)(C)N([O])C(C)(C)C1)NC(=O)OCC[S+]([O-])CC1(C)COC1` (mixture of isomers) showed a solubility at 24 h of 24000 µg/mL.

A short description of another data set: Metabolic stability in mouse liver microsomes assessed as compound remaining after 1 hr. In kind it is ADME. Conditions: read-out: Stability. In general terms: Liver microsomes are vesicles of endoplasmic reticulum, rich in cytochrome P450 enzymes.
For the molecule `CC(C)C[C@@H](/C=C/CC(=O)NC1CC(C)(C)N([O])C(C)(C)C1)NC(=O)OCC[S+]([O-])CC1(C)COC1` (mixture of isomers), the remaining at 1 h was 16%.
